In paper PMC5413048, “Palmitic acid is a toll-like receptor 4 ligand that induces human dendritic cell secretion of IL-1β” (PLoS ONE, 2017):

Molecular target: T1, MD-2 (TLR4/MD-2 complex) (Homo sapiens, UniProt Q9Y6Y9)
T1 construct: gene LY96; MD2 Glu17—Asn160 + 10-His Tag, co-expressed with TLR4 ectodomain Glu24—Lys631 + 10-His Tag; with TLR4 (O00206), ectodomain Glu24—Lys631
Test: isothermal titration calorimetry of PA into recombinant human TLR4/MD-2 ([…]°C)
Type: binding

T1 sequence (Q9Y6Y9 17-160): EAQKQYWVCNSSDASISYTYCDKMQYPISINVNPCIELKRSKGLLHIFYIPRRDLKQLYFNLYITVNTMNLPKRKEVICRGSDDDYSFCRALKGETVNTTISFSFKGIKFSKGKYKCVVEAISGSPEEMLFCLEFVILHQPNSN
T1 sequence (O00206 24-631 partner): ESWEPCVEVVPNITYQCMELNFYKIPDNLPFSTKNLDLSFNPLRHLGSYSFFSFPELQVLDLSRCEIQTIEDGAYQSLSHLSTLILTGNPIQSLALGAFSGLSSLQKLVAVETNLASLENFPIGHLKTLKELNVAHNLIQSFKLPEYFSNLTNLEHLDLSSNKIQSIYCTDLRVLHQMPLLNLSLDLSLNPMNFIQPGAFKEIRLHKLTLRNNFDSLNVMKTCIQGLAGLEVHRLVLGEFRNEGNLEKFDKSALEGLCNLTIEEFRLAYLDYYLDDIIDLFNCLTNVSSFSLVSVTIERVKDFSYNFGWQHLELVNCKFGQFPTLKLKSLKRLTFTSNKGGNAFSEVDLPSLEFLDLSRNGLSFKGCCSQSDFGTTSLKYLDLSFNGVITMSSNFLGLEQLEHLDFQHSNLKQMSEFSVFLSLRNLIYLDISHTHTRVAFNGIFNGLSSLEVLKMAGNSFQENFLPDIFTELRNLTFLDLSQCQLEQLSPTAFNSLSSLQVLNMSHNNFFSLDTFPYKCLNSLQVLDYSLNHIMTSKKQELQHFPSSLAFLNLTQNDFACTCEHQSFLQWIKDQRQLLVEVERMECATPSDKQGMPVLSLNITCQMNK

Kd: 2300 nM
SMILES: CCCCCCCCCCCCCCCC(=O)O [PA, palmitic acid]
